Values belong to the compound of their own block, whether it stands above or below them.
Experiments:
[1] = target: T1, P2Y12 receptor (UniProt Q9H244); assay: Two-electrode voltage-clamp of Xenopus oocytes expressing P2Y12 with Kir3.1 and 3.4: agonist-stimulated potassium currents; type: cell-based; conditions: FIG. 1C; for EC50: Xenopus oocytes with Kir3.1 and 3.4, currents normalized to 10 μM ADP, Hill fit
T1 construct: EC50, potassium currents in oocytes; other: Xenopus oocytes with Kir3.1 and 3.4; currents normalized to 10 μM ADP; Hill; potency compared to ADP
Experimental: (§1) Defolliculated Xenopus laevis oocytes were injected with a positive 500 clone pool (10 ng), rP2Y12 (10 pg), hP2Y12 (50 pg), Kir3.1, Kir3.4, PTX and hm2 (1 ng each) cRNAs as indicated. Three to seven days after injection, two-electrode voltage-clamp recordings were performed using a Geneclamp 500 amplifier (Axon Instruments) and a Maclab A/D converter (Maclab). Membrane potentials were clamped at −70 mV while the recording chamber was perfused at a rate of 2 ml/min with a solution containing (in mM) 70 KCl, 20 NaCl, 3 MgCl2, 5 HEPES, pH 7.4, at room temperature. The KCl was replaced with NaCl to examine responses in zero potassium. Agonists and antagonists (Roche Molecular Biochemistry or Sigma) were diluted in the recording solution. Experiments using C1330-7 included 0.1% dimethylsulfoxide to enhance its solubility in the perfusate.
(§2) FIG. 1(A). Activation of potassium-dependent currents in Xenopus oocytes expressing P2Y12 with Kir3.1 and 3.4. ADP (10 μM) was applied (short bars) in the presence or absence (long bar) of extracellular potassium (70 mM) while recording membrane currents in the whole-cell voltage clamp configuration. […] (B) ADP-selective stimulation of potassium channel-dependent currents by P2Y12 occurs via a pertussis toxin-sensitive pathway. UDP, adenosine (A), ATP-α-S or ADP (10 μM each) were sequentially applied to oocytes expressing the rat or human receptor with or without Kir3.1, 3.4 and pertussis toxin (PTX). (C) The agonist profile of P2Y12 recapitulates that observed for the Gi-coupled platelet ADP receptor. Concentration-response curves for ADP and 2MeSADP are presented. Membrane currents were normalized in each oocyte to a response obtained with 10 μM ADP. Each point represents the mean values (+/−s.d.) from five independent oocytes. The Hill equation was used to fit the response data.

[2] = target: T2, hP2Y12 (Homo sapiens, UniProt Q9H244); assay: Two-electrode voltage-clamp of Xenopus oocytes expressing hP2Y12 with Kir3.1 and 3.4: inhibition of ADP-stimulated potassium currents; type: cell-based
T2 construct: expressed in transfected cells; host or cells: Xenopus laevis oocytes injected with hP2Y12 cRNA (50 pg) plus Kir3.1 and Kir3.4 cRNAs
T2 sequence (Q9H244 whole entry): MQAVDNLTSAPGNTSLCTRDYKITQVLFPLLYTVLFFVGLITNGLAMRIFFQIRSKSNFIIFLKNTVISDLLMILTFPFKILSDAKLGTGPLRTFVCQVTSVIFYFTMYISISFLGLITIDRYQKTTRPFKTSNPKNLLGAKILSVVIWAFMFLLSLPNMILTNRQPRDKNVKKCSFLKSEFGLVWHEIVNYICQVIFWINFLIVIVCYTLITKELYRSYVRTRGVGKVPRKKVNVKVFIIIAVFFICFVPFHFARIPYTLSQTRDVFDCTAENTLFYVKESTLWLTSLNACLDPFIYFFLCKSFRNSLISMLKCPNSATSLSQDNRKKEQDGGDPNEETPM
Experimental: as §1
(§3) FIG. 2(A). […] The dot (.) indicates the start of a 15 sec application of ADP, while bars denote co-application with the antagonist. (B) 2MeSAMP and C1330-7 inhibition curves. Current responses were normalized to that elicited by ADP (500 nM) alone in each oocyte and plotted as the mean+/−s.d. Curves were fitted to the data using the Hill equation (n=5 independent oocytes for each point). (C) Selective ablation of P2Y12 but not m2 muscarinic receptor signaling by the thiol reagent pCMBS. ADP (10 μM), carbachol (1 μM), and pCMBS (1 mM) were applied sequentially to an oocyte expressing both receptors concurrently with Kir3.1 and 3.4. Bars indicate periods of drug application (10 sec).

[3] = target: T2, hP2Y12; assay: Forskolin-stimulated cAMP accumulation in CHO cells stably expressing hP2Y12; type: cell-based
Experimental: Chinese Hamster Ovary (CHO) cells or rat 2-9 fibroblasts, which are null for Gi-linked purinergic receptors, were transfected with hP2Y12 or rP2Y12 cDNA's, respectively using FuGene reagent (Roche), and cells were cultured in the presence of G418 for 2 weeks to select for stable transfectants. For cAMP assays, stably transfected CHO cells expressing the hP2Y12 plasmid were plated in 12-well dishes. Forty-eight hours later media was removed from the cells and replaced with serum-free media containing IBMX (0.25 mM final) and incubated at 37° C. for 5 minutes. Cells were incubated for an additional 5 min with 10 μM forskolin, as well as the indicated agonists and antagonists. Pertussis toxin treatment (30 ng/ml) occurred for 20 hrs at 37° C. prior to assay. Cyclic AMP levels were determined from aliquots of cell extracts in a radioimmunoassay (Amersham Biotrak cAMP ^125I assay system).
FIG. 3(A). Receptor coupling to adenylyl cyclase was assessed as ADP-mediated (0.1-10 μM) inhibition of forskolin-stimulated (10 μM) cAMP accumulation (CON=control, normalized to 100%). (B) The effect of the specific antagonists 2MeSAMP (2-MES)(50 μM) and C1330-7 (50 μM) on repression of ADP-mediated (1 μM) forskolin-stimulated cAMP levels. (C) Effect of pertussis toxin (PTX) pretreatment on the inhibition by 10 μM ADP of forskolin-stimulated cAMP levels. Results are the mean+/−s.d. of three representative experiments performed in triplicate.

[4] = target: T2, hP2Y12; assay: [3H]2MeSADP binding to membranes of COS7 cells transiently transfected with hP2Y12 (rapid filtration); conditions: 4 C, 30 minutes
Experimental: hP2Y12 cDNA was transiently transfected into cos7 cells and crude membranes were prepared using standard procedures. Binding of 1 nM [^3H]2MeSADP at various membrane protein concentrations and in the absence and presence of various inhibitors was determined at 4 C. for 30 minutes in a rapid filtration assay (triplicates). Non-specific binding was determined with 10 uM 2MeSADP and subtracted from all data. Each experiment included membranes from untransfected cells.

[5] = target: T3, rat P2Y12 (Rattus norvegicus, UniProt Q9EPX4); assay: Two-electrode voltage-clamp of Xenopus oocytes expressing rat P2Y12: inhibition of ADP-evoked signal; type: cell-based
T3 construct: expressed in transfected cells; host or cells: Xenopus laevis oocytes injected with rP2Y12 cRNA (10 pg) plus Kir3.1 and Kir3.4 cRNAs
T3 sequence (Q9EPX4 whole entry): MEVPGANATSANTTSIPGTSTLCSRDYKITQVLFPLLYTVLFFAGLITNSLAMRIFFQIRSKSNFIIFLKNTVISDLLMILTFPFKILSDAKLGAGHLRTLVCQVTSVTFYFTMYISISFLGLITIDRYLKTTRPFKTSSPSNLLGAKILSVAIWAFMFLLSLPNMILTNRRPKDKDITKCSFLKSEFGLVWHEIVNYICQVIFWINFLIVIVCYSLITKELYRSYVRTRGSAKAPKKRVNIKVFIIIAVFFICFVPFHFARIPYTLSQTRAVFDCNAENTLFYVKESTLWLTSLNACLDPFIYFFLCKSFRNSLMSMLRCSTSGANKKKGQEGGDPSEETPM
Experimental: as §1

[6] = tested on: P2Y12 receptor; assay: Two-electrode voltage-clamp of Xenopus oocytes expressing P2Y12 with Kir3.1 and 3.4: agonist-stimulated potassium currents; type: cell-based; conditions: 10 μM each, FIG. 1B
Experimental: as §1, §2

[7] = target: T4, m2 muscarinic receptor (Homo sapiens, UniProt P08172); assay: Carbachol-activated Kir3.1/3.4 currents via m2 muscarinic receptor in the same oocytes; type: cell-based; conditions: 1 mM, carbachol 1 μM, FIG. 2C
T4 construct: expressed in transfected cells; host or cells: Xenopus laevis oocytes injected with hm2 cRNA (1 ng) together with hP2Y12, Kir3.1 and Kir3.4
T4 sequence (P08172 1-466): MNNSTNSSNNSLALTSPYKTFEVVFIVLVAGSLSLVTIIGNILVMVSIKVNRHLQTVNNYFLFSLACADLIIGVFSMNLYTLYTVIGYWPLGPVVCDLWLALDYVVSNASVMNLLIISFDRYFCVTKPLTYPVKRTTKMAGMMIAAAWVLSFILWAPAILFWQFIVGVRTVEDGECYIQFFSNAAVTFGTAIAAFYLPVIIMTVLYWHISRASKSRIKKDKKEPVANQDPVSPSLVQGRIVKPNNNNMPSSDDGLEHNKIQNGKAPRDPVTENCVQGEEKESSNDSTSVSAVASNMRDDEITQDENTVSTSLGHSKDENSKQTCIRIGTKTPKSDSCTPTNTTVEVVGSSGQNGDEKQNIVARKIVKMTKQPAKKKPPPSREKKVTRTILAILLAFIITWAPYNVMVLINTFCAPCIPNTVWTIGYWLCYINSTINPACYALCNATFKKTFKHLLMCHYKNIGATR
Experimental: as §1
as §3, with “ADP (10 μM), carbachol (1 μM), and pCMBS (1 mM) were applied sequentially to an oocyte expressing both receptors concurrently with Kir3.1 and 3.4. Bars indicate periods of drug application (10 sec).” left out

Compound: CSc1nc(N)c2ncn([C@@H]3O[C@H](COP(=O)(O)OP(=O)(O)O)[C@@H](O)[C@H]3O)c2n1 [2MeSADP]
EC50 [1]: 0.9 nM
potency compared to ADP ([1]; ratio of EC50s): 2 orders of magnitude

Compound: CSc1nc(N)c2ncn([C@@H]3O[C@H](COP(=O)(O)O)[C@@H](O)[C@H]3O)c2n1 [2MeSAMP]
block of ADP (1 μM) responses ([2]; antagonist 10 μM, FIG. 2A): reversible block
IC50 ([2]; oocytes expressing rat or human P2Y12 (FIG. 2B: hP2Y12), ADP 500 nM, read-out: IC50, block of ADP-induced K+ currents): 1400 nM
effect on repression of cAMP levels by 1 μM ADP ([3]; antagonist 50 μM, 10 μM forskolin, FIG. 3B): reversed
effect on forskolin-stimulated cAMP levels in the absence of agonist ([3]; no agonist): Neither of these antagonists had effects
competition of 1 nM [3H]2MeSADP binding to membranes from transfected cells ([4]; 50 μM): essentially to the level of untransfected cells

Compound: Nc1ncnc2c1ncn2[C@@H]1O[C@H](COP(=O)(O)OP(=O)(O)O)[C@@H](O)[C@H]1O [ADP, adenosine 5′-diphosphate]
EC50 [1]: 300 nM
maximum reduction of forskolin-stimulated cAMP levels ([3]; 10 μM ADP, 10 μM forskolin, FIG. 3A): 47%

Compound: O=S(=O)(O)c1cc[c]([Hg][Cl])cc1 [pCMBS, p-chloromercuriphenylsulfonic acid]
effect on ADP-evoked current responses ([2]; brief exposure, 1 mM, ADP 10 μM, FIG. 2C): eliminated
effect on activation of the signaling pathway by m2 muscarinic receptors [7]: unaffected

Compound: pertussis toxin
effect of pretreatment on ADP effects on forskolin-stimulated cAMP ([3]; 30 ng/ml for 20 hrs, 10 μM ADP, FIG. 3C): abolished

The remaining lines, values ahead:

inhibitory effect on the signal evoked by ADP ([2]; human P2Y12, FIG. 2A): no inhibitory effect
inhibitory effect on the signal evoked by ADP [5]: no inhibitory effect
competition of 1 nM [3H]2MeSADP binding to membranes from transfected cells ([4]; 300 μM): only little effect
Compound: Nc1ncnc2c1ncn2[C@@H]1O[C@H](COP(=O)(O)O)[C@@H](OP(=O)(O)O)[C@H]1O [A3P5P]

agonist effect on potassium currents [6]: weak agonist
Compound: Nc1ncnc2c1ncn2[C@@H]1O[C@H](COP(O)(=S)OP(=O)(O)OP(=O)(O)O)[C@@H](O)[C@H]1O (stereo partly shown) [ATP-αS]
